# Measured values taken from ChEMBL document CHEMBL5506050, “Discovery of Oral AMP-Activated Protein Kinase Activators for Treating Hyperlipidemia” (J Med Chem, 2024).
# Calls of active or inactive are those of the source. The calls are words filed in the database; no cut-off is given here.
# How the values were obtained:
# [1] = AUC (0 to t) in female Rhesus monkey at 70 mg/kg, po or 7 mg/kg, iv measured for 36 hrs by LC-tandem MS analysis; type: ADME, organism-based, Macaca mulatta; conditions: in vivo
# Syrian golden hamster [2] = experiment: Effect on body weight gain in high-fat diet-fed golden hamster at 50 to 200 mg/kg, po qd administered via gavage measured after 4 weeks; type: functional, organism-based; conditions: Mesocricetus auratus, dose 50-200 mg/kg
# [3] = target: Voltage-gated inwardly rectifying potassium channel KCNH2 (Homo sapiens, UniProt Q12809); experiment: Inhibition of hERG; type: toxicity
# [4] = target: AMP-activated protein kinase (AMPK) alpha-1/beta-1/gamma-1 (Homo sapiens) (UniProt P54619+Q9Y478+Q13131); experiment: Activation of AMPK alpha1/AMPKbeta1/AMPKgamma1 (unknown origin) using SAMS peptide as substrate at; type: protein-complex assay; conditions: filed as activator, dose < 70.3 µM, time 20.0 min
# Mus musculus [5] = experiment: Downregulation of Mogat1 mRNA level in liver of high-fat diet-fed C57BL/6 mouse model at 200 mg/kg, po for 4 weeks by GO analysis; type: functional, organism-based
# Mus musculus [6] = experiment: Downregulation of Cidea mRNA level in liver of high-fat diet-fed C57BL/6 mouse model at 200 mg/kg, po for 4 weeks by GO analysis; type: functional, organism-based
# Rhesus monkey = experiment: Lipid lowering effect in Rhesus monkey assessed as decrease in serum LDL-C level at 35 mg/kg, NG qd measured after 7 days; type: functional, organism-based; conditions: Macaca mulatta, time 7.0 day
# [7] = target: AMP-activated protein kinase, AMPK (Homo sapiens) (UniProt P54646+O43741+P54619+Q9UGJ0+Q9Y478+Q13131+Q9UGI9); experiment: Activation of AMPK in human HepG2 cells assessed as decrease in intracellular lipid content at 10 uM incubated for 48 hrs by Oil Red O staining based analysis relative to control; type: cell-based; design: scale not given: the % may be the effect or the level left
# [8] = Efflux ratio of apparent permeability across basal to apical side over apical to basal side in human Caco-2 cells at 21 uM incubated for 2 hrs by LC-MS/MS analysis; type: ADME, cell-based
# Mus musculus [9] = experiment: Downregulation of Aacas mRNA level in liver of high-fat diet-fed C57BL/6 mouse model at 200 mg/kg, po for 4 weeks by GO analysis; type: functional, organism-based
# [10] = target: AMP-activated protein kinase, AMPK; experiment: Binding affinity to truncated AMPK (unknown origin) assessed as dissociation constant by CD analysis; type: protein-complex assay, Homo sapiens
# Syrian golden hamster [11] = experiment: Lipid lowering effect on high-fat diet-fed golden hamster assessed as decrease in serum TG level at 6 mg/kg, po qd administered via gavage measured after 4 weeks relative to control; type: functional, Mesocricetus auratus; design: scale not given: the % may be the effect or the level left
# [12] = target: AMP-activated protein kinase, AMPK; experiment: Binding affinity to recombinant AMPK (unknown origin)-immobilized in CM5 sensor chip assessed as dissociation constant by SPR analysis; type: protein-complex assay, Homo sapiens
# Mus musculus [13] = experiment: Effect on Gadd45a mRNA level in liver of diet-induced obese C57BL/6 mouse model harboring AMPKalpha LS-/- at 200 mg/kg, po for 4 weeks by GO analysis; type: functional, organism-based
# Mus musculus [14] = experiment: Lipid lowering effect on high-fat diet-fed C57BL/6J mouse assessed as decrease in serum LDL-C level at 20 mg/kg/day, po administered via gavage measured after 7 days relative to control; type: functional; design: scale not given: the % may be the effect or the level left; conditions: time 7 day
# [15] = Oral bioavailability in male Rhesus monkey at 70 mg/kg measured for 36 hrs by LC-tandem MS analysis; type: ADME, organism-based, Macaca mulatta; conditions: in vivo
# [16] = Apparent permeability across apical to basal side in human Caco-2 cells at 2 uM incubated for 2 hrs by LC-MS/MS analysis; type: ADME, cell-based
# Erythrocyte = experiment: In vivo induction of AMPK phosphorylation in erythrocytes of human at 2000 mg measured after 5 to 12 hrs by ELISA; type: functional, organism-based; conditions: time 5-12 hrs
# Syrian golden hamster [17] = experiment: Lipid lowering effect on high-fat diet-fed golden hamster assessed as decrease in ALT level in liver at 50 to 200 mg/kg, po qd administered via gavage measured after 4 weeks; type: functional, organism-based; conditions: Mesocricetus auratus, dose 50-200 mg/kg
# Syrian golden hamster [18] = experiment: Effect on food uptake in high-fat diet-fed golden hamster at 50 to 200 mg/kg, po qd administered via gavage measured after 4 weeks; type: functional, organism-based; conditions: Mesocricetus auratus, dose 50-200 mg/kg
# Mus musculus [19] = experiment: Downregulation of Dnajb9 mRNA level in liver of high-fat diet-fed C57BL/6 mouse model at 200 mg/kg, po for 4 weeks by GO analysis; type: functional, organism-based
# [20] = Tmax in female Rhesus monkey at 70 mg/kg, po or 7 mg/kg, iv measured for 36 hrs by LC-tandem MS analysis; type: ADME, organism-based, Macaca mulatta; conditions: in vivo
# Mus musculus [21] = experiment: Downregulation of Sdf2l1 mRNA level in liver of high-fat diet-fed C57BL/6 mouse model at 200 mg/kg, po for 4 weeks by GO analysis; type: functional, organism-based
# Syrian golden hamster [22] = experiment: Lipid lowering effect on high-fat diet-fed golden hamster assessed as decrease in serum LDL-C level at 200 mg/kg, po qd administered via gavage measured after 4 weeks relative to control; type: functional, Mesocricetus auratus; design: scale not given: the % may be the effect or the level left
# Sequence of AMP-activated protein kinase (AMPK) alpha-1/beta-1/gamma-1 (Homo sapiens) (P54619 whole entry): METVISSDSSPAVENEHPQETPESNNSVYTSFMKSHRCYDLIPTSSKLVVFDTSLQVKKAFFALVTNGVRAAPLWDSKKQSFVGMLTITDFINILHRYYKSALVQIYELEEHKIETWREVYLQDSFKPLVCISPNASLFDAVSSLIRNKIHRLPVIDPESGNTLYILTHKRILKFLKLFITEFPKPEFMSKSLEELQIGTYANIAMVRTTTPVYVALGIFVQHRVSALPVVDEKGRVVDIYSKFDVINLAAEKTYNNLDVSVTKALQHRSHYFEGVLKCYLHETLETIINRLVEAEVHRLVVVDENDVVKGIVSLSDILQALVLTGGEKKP
# Sequence of AMP-activated protein kinase (AMPK) alpha-1/beta-1/gamma-1 (Homo sapiens) (Q13131 whole entry partner): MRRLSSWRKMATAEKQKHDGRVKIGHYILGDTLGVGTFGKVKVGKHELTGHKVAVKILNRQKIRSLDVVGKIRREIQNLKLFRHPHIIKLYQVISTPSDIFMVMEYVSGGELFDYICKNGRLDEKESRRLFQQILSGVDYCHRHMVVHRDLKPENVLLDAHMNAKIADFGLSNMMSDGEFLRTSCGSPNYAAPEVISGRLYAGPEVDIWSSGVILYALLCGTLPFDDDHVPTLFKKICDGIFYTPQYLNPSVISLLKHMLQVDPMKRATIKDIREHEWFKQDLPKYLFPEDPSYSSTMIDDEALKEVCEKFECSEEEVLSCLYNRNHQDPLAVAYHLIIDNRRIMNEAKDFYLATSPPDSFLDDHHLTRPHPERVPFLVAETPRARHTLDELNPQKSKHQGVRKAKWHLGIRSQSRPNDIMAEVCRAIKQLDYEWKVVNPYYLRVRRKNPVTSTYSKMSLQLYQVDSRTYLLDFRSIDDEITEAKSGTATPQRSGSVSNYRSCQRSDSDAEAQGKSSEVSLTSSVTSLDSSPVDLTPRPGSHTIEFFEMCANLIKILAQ
# Sequence of AMP-activated protein kinase (AMPK) alpha-1/beta-1/gamma-1 (Homo sapiens) (Q9Y478 2-270 partner limits assumed): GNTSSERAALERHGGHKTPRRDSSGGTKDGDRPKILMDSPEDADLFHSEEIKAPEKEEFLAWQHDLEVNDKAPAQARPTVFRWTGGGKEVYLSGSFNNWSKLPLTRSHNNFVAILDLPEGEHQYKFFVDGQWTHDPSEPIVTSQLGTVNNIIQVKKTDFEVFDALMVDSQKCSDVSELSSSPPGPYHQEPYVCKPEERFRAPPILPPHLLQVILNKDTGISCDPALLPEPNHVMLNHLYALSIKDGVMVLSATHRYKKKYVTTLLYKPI
# Sequence of Voltage-gated inwardly rectifying potassium channel KCNH2 (Q12809 whole entry): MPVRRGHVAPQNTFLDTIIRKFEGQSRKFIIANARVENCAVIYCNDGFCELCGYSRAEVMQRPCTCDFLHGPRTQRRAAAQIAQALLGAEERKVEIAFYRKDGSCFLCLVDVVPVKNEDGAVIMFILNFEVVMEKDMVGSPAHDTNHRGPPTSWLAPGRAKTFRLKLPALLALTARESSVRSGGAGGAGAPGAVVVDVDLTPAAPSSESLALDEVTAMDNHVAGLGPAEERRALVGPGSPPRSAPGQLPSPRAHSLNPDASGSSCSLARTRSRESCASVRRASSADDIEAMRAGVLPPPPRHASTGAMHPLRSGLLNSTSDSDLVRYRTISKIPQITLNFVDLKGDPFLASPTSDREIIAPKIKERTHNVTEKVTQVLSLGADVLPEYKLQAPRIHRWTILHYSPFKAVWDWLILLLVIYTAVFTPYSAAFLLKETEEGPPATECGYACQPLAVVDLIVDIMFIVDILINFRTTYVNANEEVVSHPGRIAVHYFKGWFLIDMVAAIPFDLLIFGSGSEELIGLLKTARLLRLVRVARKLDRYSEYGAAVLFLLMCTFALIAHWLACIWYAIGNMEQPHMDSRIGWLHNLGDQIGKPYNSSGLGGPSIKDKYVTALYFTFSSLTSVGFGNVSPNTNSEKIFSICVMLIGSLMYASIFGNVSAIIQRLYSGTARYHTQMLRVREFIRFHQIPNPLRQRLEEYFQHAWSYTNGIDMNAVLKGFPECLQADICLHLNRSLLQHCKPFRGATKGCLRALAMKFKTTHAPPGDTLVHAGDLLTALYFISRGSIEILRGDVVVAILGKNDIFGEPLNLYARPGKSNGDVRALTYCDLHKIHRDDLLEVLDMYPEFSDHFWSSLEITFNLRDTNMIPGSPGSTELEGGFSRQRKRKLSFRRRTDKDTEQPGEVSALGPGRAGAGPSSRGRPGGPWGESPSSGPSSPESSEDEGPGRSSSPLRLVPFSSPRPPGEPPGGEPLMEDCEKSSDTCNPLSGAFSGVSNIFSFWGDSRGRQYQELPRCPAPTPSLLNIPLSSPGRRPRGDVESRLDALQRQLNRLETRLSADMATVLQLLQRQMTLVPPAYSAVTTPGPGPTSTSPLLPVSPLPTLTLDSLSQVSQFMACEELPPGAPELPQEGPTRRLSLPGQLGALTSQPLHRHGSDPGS
structure (smiles),measurement,setting,value
CC(=O)OC[C@H]1O[C@@H](n2cnc3c(Nc4cccc(O)c4)ncnc32)[C@H](OC(C)=O)[C@@H]1OC(C)=O,AUC(0-t) at 36 h,[1],102 ng·h/mL
same,Activity,Syrian golden hamster [2],inactive
same,IC50,[3],> 30 µM
same,Activity,[4],Active
same,Activity,Mus musculus [5],Active
same,Activity,Mus musculus [6],Active
same,Activity,Rhesus monkey,Active
same,Activity,[7],64%
same,"efflux ratio at 2 h, 21 µM",[8],1.9
same,Activity,Mus musculus [9],Active
same,Kd,[10],0.21 µM
same,Activity,Syrian golden hamster [11],52.8%
same,Kd,[12],17.9 µM
same,Activity,Mus musculus [13],inactive
same,Activity,Mus musculus [14],22.2%
same,bioavailability,[15],3.04%
same,"Papp A→B at 2 h, 2 µM",[16],8.6 ×10⁻⁶ cm/s
same,Activity,Erythrocyte,Active
same,Activity,Syrian golden hamster [17],Active
same,Activity,Syrian golden hamster [18],inactive
same,Activity,Mus musculus [19],Active
same,Tmax,[20],2.25 h
same,Activity,Mus musculus [21],Active
same,Activity,Syrian golden hamster [22],42%
